Reference: US12161750B2, “Antibiotic formulations for lower back pain” (Persica Pharmaceuticals Ltd., priority 2016, dated 2024)
≈ marks a conversion by molar mass, not a printed value.

Columns and labels:
[1] = In vitro diffusion and release from poloxamer gel embedded in an agar disc (HPLC); type: physicochemical; settings: 100 microliters of poloxamer formulation embedded in an agar disc
Procedure: 100 microliters of poloxamer formulation were embedded in an agar disc. The release of loaded compound into media around the agar structure is measured. The assays mimic a disc containing a poloxamer injection. The mass of antibiotic released over 72 h was determined using high-performance liquid chromatography (HPLC).

[2] = system: Gram-positive bacteria; settings: cited from earlier work
[3] = system: S. aureus; test: Sheep model of S. aureus intradiscal infection, therapeutic dosing; type: in vivo; settings: for discs sterilized: one hour post infection
Text: A sheep model of S. aureus intradiscal infection has been developed to test the in vivo efficacy of antibiotic formulations. Male Charollais or Suffolk cross sheep, approximately 35-40 kg+ at the start of the study were housed according to Home Office guidelines under the Animals (Scientific Procedures) Act 1986 and acclimatised for at least 7 days with straw bedding and access to water. They were fed a Sheep concentrate diet without added antibiotics with additional forage (hay/straw) provided.
The bacterial inoculum (ATCC 29213) is prepared from frozen glycerol/phosphate-buffered saline stock at 2.5×10^6 CFU/ml by dilution to 2×10^4 CFU/ml:
In a therapeutic model, each sheep is anesthetised and given four 0.05 ml (target volume) intradiscal Injections at L1/L2, L2/L3, L3/L4 and L4/5 of S. aureus inoculum (1×10^3 cells/disc), one injection per disc.
(§1) Approximately 1 hour, or at another selected time, after the first injection, each sheep is given a second injection of the test formulation or control formulation. Each disc that was previously successfully injected with bacteria is given a 0.1 ml (target volume) intradiscal injection. As part of the anaesthesia the animal is given analgesics (intra-muscular) in the form of meloxicam at the recommended dosage. This analgesic may be repeated if considered necessary by the named veterinary surgeon. In a prophylactic model, the order of administrations is reversed such that the first injection is a formulation of antibiotic or control and the second injection contains the bacterial inoculum. The time between administration of the antibiotic and bacteria may be hours, days, weeks or months.
A single 20G 3.5″ spinal needle is positioned directly into the edge of the nucleus pulposus of each disc. Following confirmation of positioning of the needles a second 25G 4.69″ needle primed with the dose solution is inserted into the first needle and the tip placed into the middle of the nucleus pulposus. Following confirmation of positioning of the second needles each disc is injected with the bacteria. The inner needles will then be removed. Just prior to the 1 hour post-dose bacteria time-point a new 25G 4.69″ needle, primed with the dose solution, is inserted into the 20G 3.5″ and positioned into the middle of the nucleus pulposus. The second treatment is dose given via this needle, 1 hour post the first dose.
Bacterial infection: A single 20G 3.5″ spinal needle is positioned directly into the edge of the nucleus pulposus of each disc. Following confirmation of positioning of the needles a second 25G 4.69″ needle primed with the dose solution is inserted into the first needle and the tip placed into the middle of the nucleus pulposus. Following confirmation of positioning of the second needles each disc is injected with the bacteria. The needles will then be removed. The animals are repositioned to access the other side of the spine.
Injection of formulation: A second 20G 3.5″ spinal needle is positioned directly into the edge of the nucleus pulposus on the opposite side to the first injection of each disc. Just prior to time-point for administration a new 25G 4.69″ needle, primed with the dose solution, is inserted into the 20G 3.5″ and positioned into the middle of the nucleus pulposus. The second treatment is dose given via this needle.
At set time-points post-dose the sheep is killed. The injected vertebrae discs are dissected out and the nucleus pulposus from each disc is removed. In addition, an extra untreated disc is sampled to provide control tissue. The disc is removed after all of the treated discs for the particular animal with care to ensure no contamination between control and treated samples.
The sheep intradiscal infection model of Example 1 was used to evaluate the in vivo efficacy of therapeutically dosed vancomycin.

[4] = system: S. aureus; test: Sheep model of S. aureus intradiscal infection, prophylactic dosing; type: in vivo; settings: Example 3; 5 mg/disc on day 0, discreet infection with 10^3 S. aureus per disc on day 3, harvest 24 h after infection
Procedure: as §1
The order of the injections may be reversed such that the first injection is a formulation of antibiotic and the second injection contains the bacterial inoculum. The time between administration of the antibiotic and bacteria may be hours, days, weeks or months. The second injection may be co-localised or discreet e.g. injected on the same side of the disc as the first injection or injected on the other side of the disc to the first injection respectively.
Discs were treated with vancomycin (5 mg/disc) on day 0 and on day 3 were discreetly infected with 10^3 S. aureus per disc. […]

[5] = system: MRSA (methicillin resistant Staphylococcus aureus); settings: formulated with poloxamer 407, sustained local delivery to the infected ear; cited from earlier work

SMILES	input antibiotic accounted for (released) after 72 h [1] [%]	MIC [2] [µg/mL]	discs sterilized ([3]; Example 2, discreet dosing, 5 mg vancomycin/disc)	discs sterilized ([3]; Example 2, discreet dosing, 20 mg vancomycin/disc)	reduction in average bacterial burden ([3]; Example 2, discrete dosing groups) [log10]	discs sterilized ([3]; Example 2, vancomycin in Omnipaque with 0.5% hyaluronic acid, co-localised dosing, within 24 h)	sterile discs ([3]; Example 9, discrete dosing)	reduction in average disc bacterial burden ([3]; Example 9, discrete dosing from the other side of the disc)	average reduction in bacterial burden [4] [log10]	effect on MRSA otitis media [5]
CC(=O)NC[C@H]1CN(c2ccc(N3CCOCC3)c(F)c2)C(=O)O1 [Linezolid]	57	4 (≈ 11.9 µM)								
CN[C@H](CC(C)C)C(=O)N[C@H]1C(=O)N[C@@H](CC(N)=O)C(=O)N[C@H]2C(=O)N[C@H]3C(=O)N[C@H](C(=O)N[C@H](C(=O)O)c4cc(O)cc(O)c4-c4cc3ccc4O)[C@H](O)c3ccc(c(Cl)c3)Oc3cc2cc(c3O[C@@H]2O[C@H](CO)[C@@H](O)[C@H](O)[C@H]2O[C@H]2C[C@](C)(N)[C@H](O)[C@H](C)O2)Oc2ccc(cc2Cl)[C@H]1O [Vancomycin]	92		5 of 7	3 of 7	≤ 3	all the discs were effectively sterilized	3 of 8	did not significantly reduce average bacterial disc burden	> 3	completely cures the otitis media caused by MRSA infection
